Data reported in patent US5001223A, “Parathyroid hormone antagonists with enhanced metabolic properties” (Merck & Co., Inc., priority 1989, dated 1991).

Biological target: T1, parathyroid hormone cell surface receptor (bovine renal cortical plasma membranes) (Bos taurus, UniProt Q1LZF7)
T1 construct: from tissue; host or cells: bovine renal cortex plasma membranes
T1 sequence (Q1LZF7 29-589): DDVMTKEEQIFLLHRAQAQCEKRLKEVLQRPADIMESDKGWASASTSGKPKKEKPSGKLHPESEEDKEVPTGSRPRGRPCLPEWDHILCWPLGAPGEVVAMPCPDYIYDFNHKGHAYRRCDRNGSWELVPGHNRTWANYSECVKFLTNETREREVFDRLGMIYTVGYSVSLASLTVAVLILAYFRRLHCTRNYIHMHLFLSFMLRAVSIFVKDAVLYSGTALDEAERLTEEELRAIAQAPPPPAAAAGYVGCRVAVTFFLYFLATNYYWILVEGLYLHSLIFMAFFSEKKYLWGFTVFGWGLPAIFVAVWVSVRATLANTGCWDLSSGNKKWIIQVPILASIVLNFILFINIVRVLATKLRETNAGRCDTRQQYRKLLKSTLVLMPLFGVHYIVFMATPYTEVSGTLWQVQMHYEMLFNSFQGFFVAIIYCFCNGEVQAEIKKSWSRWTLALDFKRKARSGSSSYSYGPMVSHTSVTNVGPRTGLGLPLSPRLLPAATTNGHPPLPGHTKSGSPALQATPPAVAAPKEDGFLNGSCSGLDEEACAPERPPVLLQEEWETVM
Assay: PTH binding assay (receptor assay, radioligand [Nle^8,18,^125 I-Tyr^34 ]bPTH(1-34)NH2)
Settings: radioligand 25,000 cpm, Tris-containing buffer, 30 min. at 21° C.
Procedure: PTH analogues were analysed in a new receptor assay which modified the assay reported in Rosenblatt et al., Endocrin. 107: 545-550 (1980). The binding assay used [Nle^8,18,^125 I-Tyr^34 ]bPTH(1-34)NH2which was purified by HPLC (Novapak C18, 32-35% CH3 CN in 0.1% TFA) and was stored as aliquots in 25 mM TrisHCl/1% BSA at -70° C. Bovine renal cortical plasma membranes were incubated with radioligand (25,000 cpm) in a Tris-containing buffer (250 ul) for 30 min. at 21° C. Once equilibrium was reached, bound and free radioligand were separated by centrifugation. High specific binding (85%) to bovine renal cortical membranes was obtained consistently.

- Ki: 0.082 ± 0.014 µM
SMILES: CN[C@@H](Cc1ccccc1)C(=O)N[C@@H](CCSC)C(=O)N[C@@H](Cc1c[nH]cn1)C(=O)N[C@@H](CC(N)=O)C(=O)N[C@@H](CC(C)C)C(=O)NCC(=O)N[C@@H](CCCCN)C(=O)N[C@@H](Cc1c[nH]cn1)C(=O)N[C@@H](CC(C)C)C(=O)N[C@@H](CO)C(=O)N[C@@H](CO)C(=O)N[C@@H](CCSC)C(=O)N[C@@H](CCC(=O)O)C(=O)N[C@@H](CCCNC(=N)N)C(=O)N[C@H](C(=O)N[C@@H](CCC(=O)O)C(=O)N[C@@H](Cc1c[nH]c2ccccc12)C(=O)N[C@@H](CC(C)C)C(=O)N[C@@H](CCCNC(=N)N)C(=O)N[C@@H](CCCCN)C(=O)N[C@@H](CCCCN)C(=O)N[C@@H](CC(C)C)C(=O)N[C@@H](CCC(N)=O)C(=O)N[C@@H](CC(=O)O)C(=O)N[C@H](C(=O)N[C@@H](Cc1c[nH]cn1)C(=O)N[C@@H](CC(N)=O)C(=O)N[C@@H](Cc1ccc(O)cc1)C(N)=O)C(C)C)C(C)C [[NMePhe^7,Tyr^34]bPTH(7-34)NH2]
